Read-outs that look alike come from different tables or passages of the source.
Columns and labels:
human CB1 receptor [1] = target: T1, human CB1 receptor (Homo sapiens, UniProt P21554); assay: biochemical; type: binding
T1 construct: expressed in transfected cells; host or cells: SK-N-MC cells, stably transfected with pcDNA3 CB-1 (human); semi-purified membrane pellet
In short: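 Membranes from SK-N-MC cells stably expressing human CB1, incubated 90 minutes at 30° C in Tris-HCl buffer with MgCl2, EDTA and fatty acid free BSA, pH 7.5. Bound counts collected by filtration and scintillation counting; IC50 from linear regression over varying compound concentrations.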

human CB2 receptor [2] = target: T2, human CB2 receptor (Homo sapiens, UniProt P34972); assay: Binding assay, cannabinoid CB2 receptor ([3H]-CP-55,940 displacement); conditions: Cannabinoid CB2 Receptor Binding IC50, human CB2 receptor, SK-N-MC cell membranes, radioligand CP-55,940 0.2 nM
In short: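 Membranes from SK-N-MC cells stably expressing human CB2, incubated with test compound and 0.2 nM [3H]-CP-55,940 for 90 min at 30 °C in Tris buffer pH 7.5 with fatty-acid-free BSA. Nonspecific binding defined with 10 uM WIN 55,212; filtration and scintillation counting, IC50 by linear regression.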

human CB2 receptor [3] = target: T2, human CB2 receptor; assay: Functional cell-based assay, CB2 receptor mediated change in CRE β-gal expression (agonist / inverse agonist); conditions: SK-N-MC cells, forskolin
Excerpt: (§1) Functional Cell-Based Assay for CB1 or CB2 Agonist and Inverse Agonist Effects on Intra-Cellular Adenylate Cyclase Activity
(§2) The CB1 and CB2 receptors are G-protein coupled receptors (GPCR) which influence cell function via the Gi-protein. These receptors modulate the activity of intracellular adenylate cyclase which in turn produces the intracellular signal messenger cyclic-AMP (cAMP).
(§3) At baseline, or during non-ligand bound conditions, these receptors are constitutively active and tonically suppress adenylate cyclase activity. The binding of an agonists causes further receptor activation and produces additional suppression of adenylate cyclase activity. The binding of an inverse agonist inhibits the constitutive activity of the receptors and results in an increase in adenylate cyclase activity.
(§4) By monitoring intracellular adenylate cyclase activity, the ability of compounds to act as agonists or inverse agonists can be determined.
(§5) Test compounds were evaluated in SK-N-MC cells which, using standard transfection procedures, were stably transfected with human cDNA for pcDNA3-CRE β-gal and pcDNA3 CB1 receptor (human) or pcDNA3 CB2 receptor (human). By expressing CRE β-gal, the cells produced β-galactosidase in response to CRE promoter activation by cAMP. Cells expressing CRE β-gal and either the human CB1 or CB2 receptor will produce less β-galactosidase when treated with a CB1/CB2 agonist and will produce more β-galactosidase when treated with a CB1/CB2 inverse agonist.
(§6) The cells were grown in 96-well plates under standard cell culture conditions at 37° C. in a 5% CO2 atmosphere. After 3 days, the media was removed and a test compound in media (wherein the media was supplemented with 2 mM L-glutamine, […] sodium pyruvate, 0.1% low fatty acid FBS (fetal bovine serum) and antibiotics) was added to the cell. The plates were incubated for 30 minutes at 37° C. and the plate cells were then treated with forskolin over a 4-6 hour period, then washed and lysed. The β-galactosidase activity was quantitated using commercially available kit reagents (Promega Corp. Madison, Wis.) and a VMAX Plate Reader (Molecular Devices, Inc).
For cells expressing CRE β-gal and the CB2 receptor, CB2 agonists reduced β-galactosidase activity in a dose-dependent manner and CB2 inverse agonists increased β-galactosidase activity in a dose-dependent manner.
(§7) The change in β-galactosidase activity was determined by setting a vehicle treated cell's activity value at 100% and expressing the β-galactosidase activity measured in a corresponding compound treated cell as a percent of the vehicle treated cell activity.
(§8) The EC50 values for compounds tested were calculated by linear regression and were obtained from studies in which varying compound concentrations were used.

human CB1 receptor [4] = target: T1, human CB1 receptor; assay: Functional cell-based assay, CB1 receptor mediated change in CRE β-gal expression (agonist / inverse agonist)
Excerpt: as §1, §2, §3, §4, §5, §6, §7, §8

[5] = agonist, read-out: CB2 Receptor Functional Agonist EC50
[6] = inverse agonist, read-out: CB2 Receptor Functional Inverse Agonist EC50

T1 sequence (P21554 whole entry): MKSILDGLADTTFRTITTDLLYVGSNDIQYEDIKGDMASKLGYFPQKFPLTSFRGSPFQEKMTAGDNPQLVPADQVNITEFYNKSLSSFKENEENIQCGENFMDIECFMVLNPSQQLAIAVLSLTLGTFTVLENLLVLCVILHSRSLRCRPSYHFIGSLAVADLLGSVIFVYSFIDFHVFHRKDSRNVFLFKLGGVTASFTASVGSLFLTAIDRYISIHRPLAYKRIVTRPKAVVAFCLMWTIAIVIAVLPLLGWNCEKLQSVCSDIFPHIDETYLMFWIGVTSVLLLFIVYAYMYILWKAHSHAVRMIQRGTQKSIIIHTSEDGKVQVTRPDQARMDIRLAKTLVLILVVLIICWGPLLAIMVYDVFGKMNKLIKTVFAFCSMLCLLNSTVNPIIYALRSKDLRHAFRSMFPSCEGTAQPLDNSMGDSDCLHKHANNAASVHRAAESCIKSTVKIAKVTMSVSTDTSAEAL
T2 sequence (P34972 whole entry): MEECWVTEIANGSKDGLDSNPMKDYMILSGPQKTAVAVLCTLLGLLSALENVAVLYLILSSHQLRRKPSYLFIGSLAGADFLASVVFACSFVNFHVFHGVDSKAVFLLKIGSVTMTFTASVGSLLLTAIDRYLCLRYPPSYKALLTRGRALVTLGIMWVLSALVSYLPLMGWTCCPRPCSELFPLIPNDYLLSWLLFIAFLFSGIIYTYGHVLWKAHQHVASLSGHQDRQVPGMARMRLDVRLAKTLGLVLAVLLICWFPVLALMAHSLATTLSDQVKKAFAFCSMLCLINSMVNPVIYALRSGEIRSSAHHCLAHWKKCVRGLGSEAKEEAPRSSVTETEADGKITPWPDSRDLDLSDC

SMILES	IC50 (human CB1 receptor [1]) [nM]	IC50 (human CB2 receptor [2]) [nM]	EC50 (human CB2 receptor [3]; [5]) [nM]	EC50 (human CB2 receptor [3]; [6]) [nM]	EC50 (human CB1 receptor [4]) [nM]
C[C@@H](NC(=O)c1nn(C2CCCCC2)c2c1CCCC2)C12CC3CC(CC(C3)C1)C2 [compound 212]	260	74	3.7		
O=C(NC1C2CCC(C2)C1CO)c1nn(C2CCCCC2)c2c1CCCC2 (stereo not drawn) [compound 40]	1440	215	31		
CCOC(=O)C1CCc2c(C(=O)NC34CC5CC(CC3C5)C4)nn(Cc3ccccc3)c2C1 (stereo not drawn) [compound 157]	30	2		1.5	
CC1CCCc2c(C(=O)NC3C4(C)CCC(C4)C3(C)C)nn(-c3ccc(F)cc3)c21 (stereo not drawn) [compound 13]	108	6.5	4.1		
CCOC(=O)C1CCc2c(c(C(=O)NC3C4(C)CCC(C4)C3(C)C)nn2Cc2ccccc2)C1 (stereo not drawn) [compound 149]	67	8		7.9	
O=C(NCc1ccccn1)c1nn(-c2ccc(Cl)cc2Cl)c2c1CCCC2=Cc1ccc(Cl)cc1 [compound 319]					50
CCOC(=O)[C@@H]1CCc2c(c(C(=O)NC3C4CC5CC(C4)CC3C5)nn2C2CCCCC2)C1 (stereo partly drawn) [Cpd 209, (5R)-3-(adamantan-2-ylcarbamoyl)-1-cyclohexyl-4,5,6,7-tetrahydro-1H-indazole-5-carboxylic acid ethyl ester]	260	200		74	
COC(=O)C(Cc1cccc(OCc2ccccc2)c1)NC(=O)c1nn(-c2ccc(OC)cc2)c2c1CCCC2 (stereo not drawn) [compound 3]		428		190	
COC(=O)[C@H]1CCc2c(c(C(=O)NC3C4CC5CC(C4)CC3C5)nn2C2CCCCC2)C1 (stereo partly drawn) [compound 218]	400	3		6	
O=C(NC1C2CC3CC(C2)CC1C3)c1nn(CC2CCCCC2)c2c1CCCC2 (stereo not drawn) [compound 122]	4	1.5	37		
CCOC(=O)[C@H]1C2CCC(C2)[C@H]1NC(=O)c1nn(-c2ccc(F)cc2)c2c1CCCC2CCc1ccccc1 (stereo partly drawn) [compound 154]	60	370	9		
C[C@@H](NC(=O)c1nn(C2CCCCC2)c2c1CCCC2)C1CCCCC1 [compound 195]	100	20	5.5		
COC(=O)C1CCc2c(c(C(=O)NC3C4CC5CC(C4)CC3C5)nn2C2CCCCC2)C1 (stereo not drawn) [compound 231]	638			35	
CCOC(=O)C1CCc2c(C(=O)N[C@H](C)C3CCCCC3)nn(C3CCCCC3)c2C1 (stereo partly drawn) [compound 284]	350	45		360	
O=C(NC12CC3CC(CC(C3)C1)C2)c1nn(C2CCCCC2)c2c1CCCC2 [compound 44]	79	2.4	29		
CC(NC(=O)c1nn(C2CCCCC2)c2c1CCCC2)C12CC3CC(CC(C3)C1)C2 (stereo not drawn) [compound 26]	723	15	11		
CCOC(=O)C1CCc2c(C(=O)NCC34CC5CC(CC(C5)C3)C4)nn(Cc3ccccc3)c2C1 (stereo not drawn) [compound 156]	97	2		35	
O=C(NCC12CC3CC(CC(C3)C1)C2)c1nn(C2CCCCC2)c2c1CCCC2 [compound 32]	20	6.9	47		
CC(NC(=O)c1nn(CC2CCCCC2)c2c1CCCC2)C12CC3CC(CC(C3)C1)C2 (stereo not drawn) [compound 123]	7.5	4.6	7.5		
O=C(NC1C2CC3CC(C2)CC1C3)c1nn(C2CCCCC2)c2c1CCCC2Cl (stereo not drawn) [compound 62]	280	5	0.57		
COC(=O)[C@@H]1CCc2c(c(C(=O)NC3C4CC5CC(C4)CC3C5)nn2C2CCCCC2)C1 (stereo partly drawn) [compound 219]	100	4		320	

SMILES	IC50 (human CB1 receptor [1]) [nM]	IC50 (human CB2 receptor [2]) [nM]	EC50 (human CB2 receptor [3]; [5]) [nM]	EC50 (human CB2 receptor [3]; [6]) [nM]	EC50 (human CB1 receptor [4]) [nM]
CCOC(=O)[C@H]1CCc2c(c(C(=O)NC3C4CC5CC(C4)CC3C5)nn2C2CCCCC2)C1 (stereo partly drawn) [Cpd 208, (5S)-3-(adamantan-2-ylcarbamoyl)-1-cyclohexyl-4,5,6,7-tetrahydro-1H-indazole-5-carboxylic acid ethyl ester]	660	14		8.6	
COC(=O)C(Cc1ccc(O)cc1)NC(=O)c1nn(Cc2ccccc2)c2c1CCCC2 (stereo not drawn) [compound 75]	23.7	0.7	0.1		
CCOC(=O)C1CCc2c(c(C(=O)NC(C)C34CC5CC(CC(C5)C3)C4)nn2-c2ccccc2)C1 (stereo not drawn) [compound 116]		990		500	
C[C@@H](NC(=O)c1nn(-c2ccc(Cl)cc2Cl)c2c1CCC/C2=C\c1ccc(Cl)cc1)c1ccccc1 [compound 307]					100
CC12CCC(C1)C(C)(C)C2NC(=O)c1nn(-c2ccc(F)cc2)c2c1CCCC2 (stereo not drawn) [compound 10]	45	6	1.9		
CCOC(=O)[C@H]1CCc2c(c(C(=O)NC(C)C34CC5CC(CC(C5)C3)C4)nn2C2CCCCC2)C1 (stereo partly drawn) [compound 215]		200		220	
CC12CCC(C1)C(C)(C)[C@@H]2NC(=O)c1nn(Cc2ccccc2)c2c1CCCC2 (stereo partly drawn) [compound 217]	2.6	0.1	0.052		
O=C(NC1C2CC3CC(C2)CC1C3)c1nn(C2CCCCC2)c2c1CC(NC(=O)C(F)(F)F)CC2 (stereo not drawn) [compound 87]	855	26.6	250		
CCOC(=O)[C@@H]1CCc2c(c(C(=O)NC(C)C34CC5CC(CC(C5)C3)C4)nn2C2CCCCC2)C1 (stereo partly drawn) [compound 214]	1230	15.3		120	
CC12CCC(C1)C(C)(C)[C@H]2NC(=O)c1nn(C2CCCCC2)c2c1CCCC2 (stereo partly drawn) [compound 207]	82.4	1.6	10		
O=C(NN1CCCCCC1)c1nn(-c2ccc(F)cc2)c2c1CCCC2 [compound 35]	700	94	35		
CC12CCC(C1)C(C)(C)C2NC(=O)c1nn(-c2ccccc2)c2c1CCCC2 (stereo not drawn) [compound 1]	377	13.5	15		
CC(NC(=O)c1nn(C2CCCCC2)c2c1CCCC2)C1CCCCC1 (stereo not drawn) [compound 184]	50	20	100		
CC(C)OC(=O)C1CCc2c(c(C(=O)NC3C4CC5CC(C4)CC3C5)nn2C2CCCCC2)C1 (stereo not drawn) [compound 232]	2400	30		360	
CCOC(=O)C1CCc2c(c(C(=O)N[C@H](C)C3CCCCC3)nn2C2CCCCC2)C1 (stereo partly drawn) [compound 251]		2.8		23	
CCOC(=O)[C@@H]1CCCC[C@@H]1NC(=O)c1nn(C2CCCCC2)c2c1CCCC2 [compound 36]	105	12.8	5		
O=C(NN1CCCCCC1)c1nn(C2CCCCC2)c2c1CCCC2 [compound 37]	69.3	112	10		
CC(=O)OC1CCc2c(c(C(=O)NC3C4(C)CCC(C4)C3(C)C)nn2C2CCCCC2)C1 (stereo not drawn) [compound 94]	1780	20	25		
CCOC(=O)[C@@H]1CCc2c(c(C(=O)NC3C4CC5CC(C4)CC3C5)nn2Cc2ccccc2)C1 (stereo partly drawn) [compound 211]	5	0.7		16	
CC12CCC(C1)C(C)(C)C2NC(=O)c1nn(-c2cccc(F)c2)c2c1CCCC2 (stereo not drawn) [compound 18]	91.8	3.6	2.7		
CCOC(=O)[C@@H]1C2CCC(C2)[C@@H]1NC(=O)c1nn(C2CCCCC2)c2c1CCCC2 (stereo partly drawn) [compound 278]	403	37.5	0.78		

— patent publication US7452997B2 (priority 2004, dated 2008)
